In patent US20090042988A1, “PHARMACEUTICAL COMPOSITIONS CONTAINING A MEGLITINIDE COMPOUND FOR PREVENTING HEPATIC FIBROSIS” (KURUME UNIVERSITY, priority 2006, published 2009):
“And” between values parts separate entries of the source, which are not always exact repeats. Equal entries are not always repeated. “Also recorded” adds a separate entry of the source.

Tests used:
fatty liver = experiment: Degree of fatty liver by liver/spleen ratio of CT in NASH patients with diabetes given nateglinide; assay type: in vivo
Source text: 5 patients were selected as the subjects, who had clinical features of fatty liver found by the abdominal ultrasound or the abdominal CT, had negative test results in various virus markers and autoantibody, could deny a drinking history or a drug history; were diagnosed as NASH by a liver biopsy based on Brunt's scale (Am J Gastroenterol. 1999 94: 2467-2474), and had diabetes on which diet and exercise therapies could not sufficiently produce the therapeutic effect. […] Am J Gastroenterol. 1999 94: 2467-2474).

liver biopsy tissues [1] = conditions: 16 weeks, 5 patients with diabetes diagnosed as NASH (Non-patent Literature 10); cited from earlier work
ATP-citrate lyase = conditions: nateglinide administered before glucose load; diabetic model animal; cited from earlier work
liver biopsy tissues [2] = experiment: Histological scoring of liver biopsy tissues (Brunt's scale) in NASH patients with diabetes given nateglinide;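 further: patients dosed orally with 90 mg thrice daily ahead of meals over 16 weeks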
Experimental: Meanwhile, the degree of hepatic fibrosis herein mentioned is evaluated by the steps comprising of treating the tissue section of liver biopsy samples with the method of specifically staining the fibrillary element such as Masson's trichrome stain, Sweet's reticulin stain or Azan stain; and then determining the quantity thereof per distinctive fibrosis images or evaluating them as stages. As one example, since hepatocellular necrosis or degeneration in NASH often occurs in areas of zone 3, the portal fibrosis is evaluated corresponding to the degree thereof on a scale of 0 to 4 when pericellular fibrosis, perivenular fibrosis or pathology of the region corresponding to the areas of zone 3 is advanced. Further, the degree is comprehensively classified as: Stage 1: perivascular/perisinusoidal/pericellular fibrosis partially or widely exists centering on zone 3; Stage 2: portal fibrosis partially or widely exists in addition to Stage 1; Stage 3: bridging fibrosis partially or widely exists; and Stage 4: cirrhosis.
Hepatocellular degeneration is determined as ballooning of hepatocytes after treating the section of liver biopsy tissues with hematoxylin-eosin staining. Hepatocellular degeneration is evaluated based on the number of the cells observed in the visual field (Non-patent Literature 11).

[3] = Diabetic indexes (HbA1c, fasting blood glucose, blood glucose 2 hours after glucose tolerance test) in NASH patients with diabetes given nateglinide; assay type: in vivo; conditions: per patient, Case 1-5
Experimental: In 0th week and 12th week or 16 week, as the diabetic indexes, the fasting blood glucose, the blood glucose 2 hours after the glucose tolerance test, and hemoglobin A1c, as the evaluation of the liver, the degree of fatty liver determined by liver/spleen ratio of CT and liver biopsy tissues for each case were histologically analyzed to score hepatocellular degeneration, pericellular fibrosis, perivenular fibrosis, portal fibrosis or the like (Brunt E M et al. Am J Gastroenterol. 1999 94: 2467-2474).

[4] = twelve-week administration; 53 fatty liver cases with diabetes or 5 cases where GPT>GOT; cited from earlier work
[5] = Δ: value before admin. − value after admin., per patient, Case 1-5
[6] = after nateglinide administration, Brunt score, per patient, Case 1-5
[7] = after nateglinide administration, score, per patient, Case 1-5
[8] = after nateglinide 90 mg orally three times per day (12th or 16th week)
[9] = Δ: value before admin. − value after admin., 0th and 12th weeks

CC(C)[C@H]1CC[C@H](C(=O)N[C@H](Cc2ccccc2)C(=O)O)CC1 [nateglinide, (−)-N-(trans-4-isopropylcyclohexanecarbonyl)-D-phenylalanine]
CT score liver/spleen ratio (fatty liver; after nateglinide administration, per patient, Case 1-5): 1 and 0.9 and 0.95 and 0.8 and 1.05
improvement effect on fatty liver (fatty liver; cases whose diabetic indexes were not improved): an improvement effect on fatty liver was low
Δ CT score liver/spleen ratio (fatty liver; [5]): −0.09 and −0.335 and −0.06 and −0.2 and −0.25
fatty liver, hepatic inflammation, hepatic degeneration, hepatic fibrosis by liver biopsies before and after administration (liver biopsy tissues [1]): the fatty liver diminished, and hepatic inflammation, hepatic degeneration or hepatic fibrosis was improved
glucose-induced expression of ATP-citrate lyase in the liver (ATP-citrate lyase): inhibits glucose-induced expression of ATP-citrate lyase
grade (liver biopsy tissues [2]; [6]): 1 (2×) and 2 (2×) and 1.5
stage (liver biopsy tissues [2]; [6]): 2 (2×) and 1 (2×) and 1.5
hepatocellular degeneration (liver biopsy tissues [2]; [7]): 1 (4×) and 2
pericellular fibrosis (liver biopsy tissues [2]; [7]): 1 (4×) and 0
perivenular fibrosis (liver biopsy tissues [2]; [7]): 1 (4×) and 2
portal area neutrophil infiltration (liver biopsy tissues [2]; [7]): 0 (3×) and 1 (2×)
portal fibrosis (liver biopsy tissues [2]; [7]): 2 (2×) and 1 and 1.5 and 0.5
portal vein inflammation (liver biopsy tissues [2]; [7]): 0 (4×) and 1
improvement of fatty liver, hepatocellular degeneration, pericellular fibrosis, perivenular fibrosis or portal fibrosis (liver biopsy tissues [2]; cases whose diabetic indexes were improved by nateglinide): improvements were also observed
improvement of hepatocellular degeneration, pericellular fibrosis, perivenular fibrosis or portal fibrosis (liver biopsy tissues [2]; cases whose diabetic indexes were not improved (Cases 1 and 3)): hepatic inflammation, degeneration or fibrosis thereof was improved; also recorded: almost the same improvements were observed
Δ grade (liver biopsy tissues [2]; [5]): 1 (3×) and 0.5 and 0
Δ hepatocellular degeneration (liver biopsy tissues [2]; [5]): 1 (3×) and 0 and 2
Δ pericellular fibrosis (liver biopsy tissues [2]; [5]): 2 (2×) and 1 (3×)
Δ perivenular fibrosis (liver biopsy tissues [2]; [5]): 1
Δ portal area neutrophil infiltration (liver biopsy tissues [2]; [5]): 0 (3×) and 1 (2×)
Δ portal fibrosis (liver biopsy tissues [2]; [5]): 1 (2×) and 0.5 (2×) and 0
Δ portal vein inflammation (liver biopsy tissues [2]; [5]): 1 (4×) and 2
Δ stage (liver biopsy tissues [2]; [5]): 1 (2×) and 0 (2×) and 0.5
BG 2 hrs. (blood glucose 2 hours after the glucose tolerance test) [3, 8]: 199 mg/dL and 105 mg/dL and 238 mg/dL and 337 mg/dL and 118 mg/dL
fasting blood glucose [3, 8]: 106 mg/dL and 119 mg/dL and 115 mg/dL and 163 mg/dL and 100 mg/dL
HbA1c ([3]; after nateglinide 90 mg orally three times per day before each meal (12th or 16th week)): 5.5% and 5.6% and 6.2% and 7.1% and 5%
Δ BG 2 hrs. (blood glucose 2 hours after the glucose tolerance test) [3, 9]: 17 mg/dL and 89 mg/dL and 30 mg/dL and 88 mg/dL and 48 mg/dL
Δ HbA1c [3, 9]: 0.1% (2×) and −0.1% and 0.5% and 0.8%
Δ fasting blood glucose [3, 9]: 20 mg/dL and -6 mg/dL and -5 mg/dL and 7 mg/dL and 39 mg/dL
GOT and GPT (index of hepatic injury) [4]: statistically significantly inhibits GOT and GPT
